Patent US20230312577A1, “DUAL KINASE-BROMODOMAIN INHIBITORS” (MONASH UNIVERSITY, priority 2020, published 2023)
pIC50: −log10 of the molar value.

Columns and labels:
PI3K [1] = target: T1, PI3K; assay: PI3K enzyme activity assay (luminescence, ATP consumption, Kinase-Glo); assay type: biochemical; details: 10 μM ATP, 180 μM phosphatidyl inositol, 60 min
T1 construct: PI3K Enzyme Activity Assay IC50 (nM); other: 10 μM ATP, 180 μM phosphatidyl inositol, 60 min
Procedure: (§1) PI3K activity was determined using a luminescence assay measuring ATP consumption as described previously (J.-A. Pinson, Z. Zheng, M. S. Miller, D. K. Chalmers, I. G. Jennings, P. E. Thompson, L-Aminoacyl-triazine derivatives are isoform-selective PI3Kβ inhibitors that target nonconserved Asp862 of PI3Kb, ACS Med. Chem. Lett. 4 (2013) 206-210). PI3K enzyme activity was determined in 25 μl of 20 mM HEPES pH 7.5, 5 mM MgCl2 with 180 μM phosphatidyl inositol and 10 μMATP. After a 60 min incubation at room temperature the reaction was stopped by the addition of Kinase-Glo (Promega) followed by a further 15 min incubation. Luminescence was then read using a Fluostar plate reader (BMGLabtech).
(§2) Inhibitors were diluted in 20% (v/v) DMSO at the indicated concentrations in order to generate a concentration versus inhibition of enzyme activity curve which was then analysed using GraphPad Prism version 8.00 for Windows, (GraphPad Software, San Diego California USA) in order to calculate the IC50. Standard deviations for the calculated IC50's are within 25% of the mean.

[2] = target: GST-BRD4 (binding domain 1, amino acids 44-168) (Homo sapiens, UniProt O60885); assay: Bromodomain binding assay (FRET); details: BRD4 binding domain 1, tetracetylated histone 4 peptide
Procedure: Inhibition of bromodomain binding was measured using a FRET (fluorescence resonance energy transfer) based assay. […] In the presence of the two detection reagents, streptavidin D2 and anti-GST-Eu (CisBio) binding trig-gers a FRET signal detected by fluorescence at 665 nm as measured using a Pherastar reader (BMG Labtech). Data was analysed using GraphPad Prism version 8.00 for Windows, (GraphPad Software, San Diego California USA) in order to calculate the IC50. Standard deviations for the calculated IC50's are within 25% of the mean.

OPM2 cells = assay: Cell proliferation assay (ViaLight, cellular ATP); assay type: cell-based; details: Homo sapiens, OPM-2, 120 h, 5 days, 5 μM to 1 nM
Method in brief: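 1×10^3 cells per well exposed to compounds at final 5 μM to 1 nM for 5 days. Viability read as cellular ATP by ViaLight luminescence, technical triplicates. GI50 computed from the dose–response.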

PI3K [3] = assay: PI3K enzyme activity assay (luminescence, ATP consumption, Kinase-Glo); assay type: biochemical
Procedure: as §1, §2

[4] = test system: MLL-AF9 cells (IBET-151-sensitive and IBET-151-resistant); assay: Apoptosis assay in BET-inhibitor-resistant cells (Annexin V/PI); assay type: cell-based, mouse; details: 1 μM, 72 h
Procedure: Mouse AML cells; MLL-AF9 (IBET-151-sensitive and IBET-151-resistant) (5×10^4) were treated with indicated compounds for 72 h. Apoptotic analysis was performed by flow cytometry using Annexin V/propidium iodide (PI) stains. Data were collected on a BD LSR-Fortessa X20 (BD Biosciences) and analysed using FlowJo Software, version 10.0.7 (Tree Star). IC50 were calculated using the GraphPad Prism Software Version 7.0c. Data are representative of biological triplicates.

pIC50 (PI3K [1])	pIC50 [2]	selectivity (PI3K) (PI3K [3])	Compound	GI50 (OPM2 cells) [nM]	apoptosis in I-BET151-resistant MLL-AF9 cells [4]
6.30 to 7.00	≥ 7.00	–	CC(=O)N1c2ccc(-c3ccc(C(=O)NCCNC(=O)c4cn5cc(-c6cnc(N)nc6)nc(N6CCOCC6)c5n4)cc3)cc2CCC1C (centres unmarked) [Cpd 009, N-(2-(4-(1-Acetyl-2-methyl-1,2,3,4-tetrahydroquinolin-6-yl)benzamido)ethyl)-6-(2-ami-nopyrimidin-5-yl)-8-morpholinoimidazo[1,2-a]pyrazine-2-carboxamide]	≤ 100	–
≥ 7.00	≥ 7.00	–	CC(=O)N1c2ccc(-c3ccc(C(=O)NCCCNC(=O)c4cn5cc(-c6cnc(N)nc6)nc(N6CCOCC6)c5n4)cc3)cc2CC[C@@H]1C [Cpd 013, (S)-N-(3-(4-(1-Acetyl-2-methyl-1,2,3,4-tetrahydroquinolin-6-yl)benzamido)propyl)-6-(2-aminopyrimidin-5-yl)-8-morpholinoimidazo[1,2-a]pyrazine-2-carboxamide]	> 500	–
–	–	selective PI3K inhibitor	CC(=O)N1c2ccc(-c3ccc(CNC(=O)c4cn5cc(-c6cnc(N)nc6)nc(N6CCOCC6)c5n4)cc3)cc2CC[C@H]1C [Cpd 034, (R)-N-(4-(1-acetyl-2-methyl-1,2,3,4-tetrahydroquinolin-6-yl)benzyl)-6-(2-aminopyrimidin-5-yl)-8-morpholinoimidazo[1,2-a]pyrazine-2-carboxamide]	–	–
–	–	–	COc1cc2c(cc1-c1c(C)noc1C)ncc1[nH]c(=O)n([C@H](C)c3ccccn3)c12 [I-BET151, reference compound]	–	resistance to I-BET151 drug in the resistant cells was confirmed
